Among the test systems are M14; SNB-19; Malme-3M; MDA-MB-435; SF-295; SK-MEL-5; 786-0; HL-60; MOLT-4; CCRF-CEM; SK-MEL-28; SK-OV-3; TK-10; UO-31; U-251; UACC-62; SF-268; HCT-15; NCI-H23; NCI-H460.
Common to all, as to assay: NCI-60 cell line screen, 48 h

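96-well plates; 48 h exposure; 5 concentrations. Endpoints by linear interpolation between flanking doses. Not reached: highest tested concentration assigned. The concentration for 50% growth inhibition is given as GI50.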 Calls of active or inactive are those of the source. No stated cut-off is given here; in the data, active = GI50 up to about 1.1 µM and inactive = higher.

Regarding `O=C(O)c1ccc(C(O)(c2ccccc2)c2ccccc2)cc1`, the GI50 with M14, in the test on SNB-19, with Malme-3M, with MDA-MB-435, in the test on SF-295 and with SK-MEL-5 was > 100 µM (inactive) each time. For the same compound, the GI50 in the test on 786-0, in the test on HL-60, in the test on MOLT-4, in the test on CCRF-CEM, with SK-MEL-28 and in the test with SK-OV-3 was > 100 µM (inactive) in each case. The GI50 was > 100 µM (inactive) with TK-10; > 100 µM (inactive) with UO-31; > 100 µM (inactive) with U-251; > 100 µM (inactive) in the test on UACC-62; > 100 µM (inactive) in the test with SF-268; above 100 µM in the test on HCT-15. In addition, in the test on NCI-H23, the GI50 was > 100 µM (inactive).

As for `CSC1=C(C#N)C(=O)N(c2ccc(C)cc2)C(=O)C1C#N` (stereo not given), the GI50 in the test with M14, in the test with SNB-19, with Malme-3M, in the test on MDA-MB-435, with SF-295 and with SK-MEL-5 was > 100 µM (inactive) each time. Further, the GI50 in the test with 786-0, in the test with HL-60, in the test on MOLT-4, in the test with CCRF-CEM, in the test on NCI-H460 and in the test with SK-MEL-28 was > 100 µM (inactive) each time. The GI50 in the test with SK-OV-3, in the test on TK-10, in the test with UO-31, with U-251, with UACC-62 and with SF-268 was > 100 µM (inactive) each time. Besides, the figures for the GI50 in the test on HCT-15 and with NCI-H23 were above 100 µM and > 100 µM (inactive), respectively.

As for `COc1ccc([C@@]23Oc4cc(OC)cc(OC)c4[C@]2(O)[C@H](O)[C@H](C(N)=O)[C@H]3c2ccccc2)cc1` [DIDESMETHYLROCAGLAMIDE], the GI50 in the test on M14, in the test on SNB-19, in the test with Malme-3M, with MDA-MB-435, with SF-295 and with SK-MEL-5 was < 0.01 µM (active) throughout. In addition, the GI50 in the test on 786-0 was < 0.01 µM (active); in the test with HL-60, < 0.0192 µM (active); in the test with MOLT-4, < 0.01 µM (active); with CCRF-CEM it was < 0.01 µM (active); in the test with NCI-H460 it was < 0.01 µM (active); in the test on SK-MEL-28, < 0.01 µM (active). Also, the GI50 in the test on SK-OV-3 is < 0.01 µM (active); in the test on TK-10 it was 0.0105 µM (active); with UO-31, < 0.0161 µM (active); in the test with U-251, < 0.01 µM (active); in the test on UACC-62 it was < 0.01 µM (active); in the test on SF-268 it was < 0.01 µM (active). In addition, the GI50 was below 0.0142 µM in the test with HCT-15 and < 0.01 µM (active) with NCI-H23.

For the compound `O=c1c2ncn(C3CCCCO3)c2n(-c2ccccc2)c(=S)n1-c1ccccc1` (stereo not given), the GI50 was > 92.5 µM (inactive) in the test with M14; 21.5 µM (inactive) in the test on SNB-19; > 41.5 µM (inactive) with Malme-3M; > 67.6 µM (inactive) in the test with MDA-MB-435; 16.1 µM (inactive) in the test on SF-295; > 74.3 µM (inactive) in the test with SK-MEL-5. In addition, the GI50 with 786-0 was 16.4 µM (inactive); with HL-60, > 64.4 µM (inactive); in the test with MOLT-4, > 100 µM (inactive); in the test on CCRF-CEM, > 83 µM (inactive); with NCI-H460, > 54.8 µM (inactive); with SK-MEL-28, > 68.1 µM (inactive). In addition, the GI50 is 20.7 µM (inactive) with SK-OV-3; 31.9 µM (inactive) with TK-10; 35.1 µM (inactive) with UO-31; 14.5 µM (inactive) in the test with U-251; 18.5 µM (inactive) with UACC-62; 11 µM (inactive) with SF-268. Besides, the results for the GI50 with HCT-15 and in the test with NCI-H23 were 55.3 µM and 31.4 µM (inactive), respectively.

On to `OCCCNCc1ccccn1`, for which the GI50 in the test on M14, in the test with SNB-19, in the test with Malme-3M, with MDA-MB-435, with SF-295 and in the test with SK-MEL-5 was > 100 µM (inactive) in each case. Also, the GI50 in the test on 786-0 was > 100 µM (inactive); with HL-60, 68.1 µM (inactive); in the test with MOLT-4 it was > 100 µM (inactive); in the test on CCRF-CEM it was > 100 µM (inactive); in the test on NCI-H460 it was > 100 µM (inactive); with SK-MEL-28, > 100 µM (inactive). Moreover, the GI50 in the test with SK-OV-3, with TK-10, in the test on UO-31, with U-251, in the test with UACC-62 and in the test with SF-268 was > 100 µM (inactive) each time. Also, the GI50 was above 100 µM with HCT-15 and > 100 µM (inactive) in the test with NCI-H23.

For the compound `O=c1[nH]nc(Cc2ccc(Cl)cc2)n1O`, the GI50 in the test on M14, in the test with SNB-19, in the test with Malme-3M, in the test on MDA-MB-435, in the test on SF-295 and in the test with SK-MEL-5 was > 100 µM (inactive) each time. The GI50 with 786-0, with HL-60, with MOLT-4, in the test on CCRF-CEM, in the test with NCI-H460 and in the test with SK-MEL-28 was > 100 µM (inactive) in each case. Besides, the GI50 in the test on SK-OV-3, in the test with TK-10, with UO-31, in the test on U-251, in the test with UACC-62 and in the test with SF-268 was > 100 µM (inactive) each time. Besides, the GI50 with HCT-15 was above 100 µM; in the test with NCI-H23, > 100 µM (inactive).

For the compound `c1ccc2c(c1)ncn2C1CCCCO1` (stereo not given), the GI50 with M14, in the test on SNB-19, with Malme-3M, in the test with MDA-MB-435, with SF-295 and with SK-MEL-5 was > 100 µM (inactive) each time. In addition, the GI50 with 786-0, in the test on HL-60, in the test on MOLT-4, in the test on CCRF-CEM, in the test with SK-MEL-28 and in the test on SK-OV-3 was > 100 µM (inactive) in each case. In addition, the GI50 in the test on TK-10 is > 100 µM (inactive); with UO-31, > 100 µM (inactive); in the test with U-251 it was > 100 µM (inactive); with UACC-62, > 100 µM (inactive); with SF-268 it was > 100 µM (inactive); in the test with HCT-15, above 100 µM. The GI50 with NCI-H23 is > 100 µM (inactive).

Take `Cc1ccc2c(c1)CC1(Cc3cccc(C)c3C1=O)C2=O` (stereo not given): the GI50 in the test on M14 was 64.4 µM (inactive); with Malme-3M, 85.5 µM (inactive); with MDA-MB-435, > 10 µM (inactive); in the test on SF-295, > 100 µM (inactive); in the test with SK-MEL-5 it was 32.3 µM (inactive); in the test on 786-0 it was > 100 µM (inactive). In addition, the GI50 is 38.3 µM (inactive) with HL-60; 42.6 µM (inactive) in the test with MOLT-4; 70.1 µM (inactive) with CCRF-CEM; 69.7 µM (inactive) in the test with NCI-H460; > 100 µM (inactive) in the test on SK-MEL-28; 88.5 µM (inactive) in the test on SK-OV-3. Also, the GI50 with TK-10 was > 100 µM (inactive); in the test with UO-31 it was 20.9 µM (inactive); in the test on U-251 it was > 100 µM (inactive); in the test on UACC-62 it was 48.4 µM (inactive); in the test on SF-268, > 100 µM (inactive); in the test with HCT-15, above 100 µM. In the test on NCI-H23, the GI50 was > 100 µM (inactive).

Turning to `CCNC(=O)Nc1ccccn1`, the GI50 in the test with M14, with SNB-19, in the test on Malme-3M, in the test with MDA-MB-435, in the test on SF-295 and in the test on SK-MEL-5 was > 100 µM (inactive) throughout. Moreover, the GI50 in the test with 786-0, in the test with HL-60, in the test on MOLT-4, in the test with CCRF-CEM, in the test on NCI-H460 and with SK-MEL-28 was > 100 µM (inactive) throughout. Moreover, the GI50 in the test on SK-OV-3, with TK-10, in the test on UO-31, in the test with U-251, in the test with UACC-62 and in the test on SF-268 was > 100 µM (inactive) throughout. In the test on NCI-H23, the GI50 was > 100 µM (inactive).

For `CSc1nnc(SC)nn1`, the GI50 in the test with M14 is 15.5 µM (inactive); with SNB-19 it was 20.7 µM (inactive); with Malme-3M, 13 µM (inactive); with MDA-MB-435 it was 16.9 µM (inactive); in the test on SF-295, 18.1 µM (inactive); in the test with SK-MEL-5, 15.8 µM (inactive). For the same compound, the GI50 in the test with 786-0 was 13.8 µM (inactive); with HL-60 it was 3.65 µM (inactive); in the test with MOLT-4 it was 0.438 µM (active); with CCRF-CEM it was 1.81 µM (inactive); in the test with NCI-H460, 18.2 µM (inactive); with SK-OV-3, 21.4 µM (inactive). The GI50 was 12.6 µM (inactive) in the test with TK-10; 15.5 µM (inactive) in the test on UO-31; 20.6 µM (inactive) in the test with U-251; 18.2 µM (inactive) with UACC-62; 15.9 µM (inactive) with SF-268; 19.2 µM with HCT-15. In the test on NCI-H23, the GI50 is 20.8 µM (inactive).

Values taken from ChEMBL document CHEMBL1201862, “PubChem BioAssay data set” (2004).
